In patent US9657013B2, “Inhibitors of hepatitis B virus covalently closed circular DNA formation and their method of use” (priority 2012, dated 2017):

Legend:
Type in all cases: cell-based, hepatitis B virus
[1] = tested on: HBV e antigen (HBeAg) production in HepDE19 cells; experiment: HBeAg ELISA in HepDE19 cells (surrogate marker for cccDNA); settings: nine days incubation
Method: High throughput compound screen and assay: HepDE19 cells were cultured under tetracycline containing medium until confluent, the cells were then trypsinized and seeded in 96-well plates at a density of 5.0×10^4 cells/well with tetracycline-free medium to induce HBV replication. Immediately following cell seeding, compounds were added to screening plates by means of automated liquid handling (Beckman Coulter, Brea, Calif.), at a final concentration of 10 μM in 1.0% DMSO. Each screening plate consisted of 80 compound test wells, 4 wells of cells with 1.0% DMSO only, 4 wells with DMSO and without cells, and 4 wells of cells with DMSO and 50 μM lamivudine (3TC) as a reference inhibitor. […] Intracellular HBeAg (precore) accumulation was assayed by indirect ELISA assay as follows. Media was removed from wells and the cell monolayer was fixed with 100% ice cold methanol for 20 min, followed with two washes (150 μl each) with PBS containing 0.5% Tween-20 (PBST) with 1 min incubation at room temperature. […] Signal was allowed to develop for 20 minutes and optical absorbance was determined at a wavelength of 650 nm with a reference reading at 490 nm. […]

[2] = tested on: HBV RNA and core DNA; experiment: viral RNA and core DNA in HepDES19 cells (Northern/Southern blot); settings: for reduction of viral RNA and DNA replicative intermediates: day 12, high concentrations; for steady state levels of HBV RNA and core DNA: early time point (day 4) of treatment
Source text: Viral nucleic acid analysis: Total cellular RNA was extracted with TRIzol reagent (Invitrogen, Grand Island, N.Y.) by following manufacturer's directions. Ten microgram of total cellular RNA was resolved in 1.5% agarose gel containing 2.2 M formaldehyde and transferred onto Hybond-XL membrane (GE Healthcare, Piscataway, N.J.) in 20×SSC buffer. Intracellular hepadnaviral core DNA and cccDNA (Hirt DNA) were extracted as described previously (Guo, H., D. Jiang, T. Zhou, A. Cuconati, T. M. Block, and J. T. Guo. 2007. Guo, H., D. Jiang, T. Zhou, A. Cuconati, T. M. Block, and J. T. Guo. 2007. Guo, H., R. Mao, T. M. Block, and J. T. Guo. 2010. Guo, H., W. S. Mason, C. E. Aldrich, J. R. Saputelli, D. S. Miller, A. R. Jilbert, and J. E. Newbold. 2005). Half of the DNA samples recovered from one well of a 6-well-plate were resolved by electrophoresis into a 1.2% agarose gel and blotted onto Hybond-XL membrane. Membranes were probed with either an α-^32P-UTP (800 Ci/mmol, Perkin Elmer) labeled hepadnaviral minus (detecting DNA) or plus strand (detecting RNA) specific full-length riboprobe and exposed to a phosphorimager screen (Fuji Film, Tokyo, Japan). Hybridization signals were visualized by Typhoon FLA-7000 (GE Healthcare) and quantified with ImageQuantTL software (GE Healthcare).
Identification of compounds that inhibits cccDNA accumulation in HepDES19 cells: Compounds were tested on HepDES19 cells, which have a higher level of cccDNA production than HepDE19 cells (Guo, H., D. Jiang, T. Zhou, A. Cuconati, T. M. Block, and J. T. Guo. 2007). Briefly, after withdrawal of tetracycline, HepDES19 cells were left untreated, or were treated with compound at serial concentrations; tetracycline-free media was changed every other day with fresh compound supplementation. The concentration of DMSO in all experimental groups was normalized at 0.1%. […] Shorter exposure of the Hirt DNA blot was used for the quantitative determination of DP-rcDNA signals. […] The reduction between DP-rcDNA and cccDNA was proportional compared with untreated control. […] Liu, C. P. Hu, and C. Chang. 2005. Guo, H., T. Zhou, D. Jiang, A. Cuconati, G. H. Xiao, T. M. Block, and J. T. Guo. 2007. Zhou, T., H. Guo, J. T. Guo, A. Cuconati, A. Mehta, and T. M. Block. 2006).

[3] = tested on: HBV Dp-rcDNA and cccDNA; experiment: stability of HBV DP-rcDNA and cccDNA

SMILES | HBeAg production [1] | reduction of viral RNA and DNA replicative intermediates [2] | steady state levels of HBV RNA and core DNA [2] | stability of HBV Dp-rcDNA and cccDNA [3]
Cc1nc2cc(NC(=O)c3ccc(S(=O)(=O)N(C)Cc4ccccc4)cc3)ccc2s1 [CCC-0346, 4-(Benzyl-methyl-sulfamoyl)-N-(2-methyl-benzothiazol-5-yl)-benzamide] | inhibitor | slight reduction | did not reduce | did not alter
O=C(CN(c1cc(C(F)(F)F)ccc1Cl)S(=O)(=O)c1ccccc1)NCc1ccncc1 [CCC-0975, 2-[Benzenesulfonyl-(2-chloro-5-trifluoromethyl-phenyl)-amino]-N-pyridin-4-ylmethyl-acetamide] | inhibitor | slight reduction | did not reduce | did not alter
